From article PMC12133000 (PLOS One, 2025)

Tested on: rat liver microsomes (RLMs)
Experiment: Michaelis-Menten kinetics (Km) of rivaroxaban in RLMs
Type: in vitro ADME
Details: read-out: Km of rivaroxaban
Method: Three samples from each group were incubated, centrifuged, and separated as described earlier. The LC–MS/MS method was used to detect rivaroxaban metabolites. Km was calculated by applying the Michaelis–Menten equation using Prism v. 9.0 (GraphPad Software, MA, USA).

- Km: 17.6 µM
Compound: O=C(NC[C@H]1CN(c2ccc(N3CCOCC3=O)cc2)C(=O)O1)c1ccc(Cl)s1 [rivaroxaban, Rivaroxaban]
